Data reported in patent publication US8993626B2, “Methods of treatment using sterculic acid” (The United States of America, as represented by the …, priority 2010, dated 2015).

Key:
[1] = test system: Renal Cancer, RXF-393; test: NCI in vitro anti-cancer cell line screen (SRB); conditions: Homo sapiens, RXF 393, 48 h
Procedure: (§1) The human tumor cell lines used in the cancer screen panel were grown in RPMI 1640 medium containing 5% FBS and 2 mM L-glutamine. The cells were inoculated into 96-well microtiter plates in 100 μl at plating density ranging from 5000 to 40,000 cell/well. […] Following drug addition, the plates were incubated for an additional 48 h. The assay was terminated by the addition of cold 10% TCA. The supernatant was discarded, and the plates were washed five times with water and air dried. Sulforhodamine B (SRB) solution (100 μl) at 0.4% (w/v) in 1% acetic acid was added to each well, and plates were incubated for 10 min at room temperature. After staining, unbound dye was removed by washing five times with 1% acetic acid and the plates were air dried. Bound stain was subsequently solubilized with 10 mM trizma base, and the absorbance was read on an automated plate reader at a wavelength of 515 nm.
(§2) A sulforhodamine B (SRB) end point was used to calculate the median growth inhibition (GI50). GI50 refers to the concentration at which the drug inhibits tumor cell growth by 50%.

[2] = test system: ARPE-19 cells; test: Fatty acids against 7KCh-mediated cell death (CCK8); assay type: cell-based
Procedure: FIGS. 12A-12C depict ARPE-19 cell viability in response to 12 μM 7KCh with or without 0.1-5 μM (A) sterculic acid and (B) stearic acid after 24 hr treatments. Error bars indicate the standard deviations. n=3-5. Two-tailed Student's t-test. (C) Representative images of changes in cell morphology in response to 12 μM 7KCh with or without 1 μM sterculic acid and stearic acid after 24 hr treatments.
ARPE-19 cells were seeded in 24-well plates with 1×10^5 cells per well and allowed to recover for 16-24 hr. Once confluency reached approximately 90%, the effect of the fatty acids against 7KCh-mediated cell death was examined 24 hr after incubation in serum-free medium with 12 μM 7KCh. Fatty acids were tested at 0.1, 0.5, 1, 5 and 10 μM concentrations. The effects of the fatty acids against 7KCh-mediated inflammation and ER stress were examined by incubating cells in 1 μM fatty acids with either 8 μM 7KCh (24 hr for quantitative real-time PCR (qRT-PCR), 24 and 48 hr for immunoblot), or 6 μM 7KCh for 48 hr (for ELISA). Three individual experiments were performed for each treatment with quadruplicate measurements performed for each experiment in 24-well plates.
The cell viability was determined by the dehydrogenase activity of the ARPE-19 cells using Cell Counting Kit-8 (CCK8, Dojindo, Gaithersburg, Md.) according to manufacturer's protocol.
The lowest effective concentrations of fatty acids that offset the 7KCh-mediated cell death were determined. […] Table 3 lists the lowest concentrations of these fatty acids required to maintain full cell viability against 12 μM 7KCh treatment. All unsaturated fatty acids protected against 7KCh-induced cell death. […] DHA, α-linolenic, and linoleic acid prevented 7KCh-mediated cell death at 5 μM but the rest of unsaturated fatty acids and dihydrosterculic acid required 10 μM to be protective.

[3] = test system: Melanoma, LOX-IMVI; test: NCI in vitro anti-cancer cell line screen (SRB); conditions: Homo sapiens, 48 h
Procedure: as §1, §2

[4] = test system: bFGF-induced angiogenesis; test: Chick chorioallantonic membrane (CAM) assay; assay type: in vivo; conditions: for decrease in blood vessels induced by bFGF: bFGF 5 ng/ml, 72 h
Procedure: Results shown are reported as the reduction in angiogenic stimulation (vessels counted) compared to untreated controls. A, bFGF (5 ng/ml); B, bFGF (5 ng/ml)+5 μl DMSO; C, bFGF (5 ng/ml)+5 μl DMSO containing 1 μg/ml sterculic acid; D, bFGF (5 ng/ml)+5 μl DMSO containing 10 μg/ml sterculic acid.
Fertilized chick embryos, 9-day old, were maintained in a 48 place table top egg incubator at 37° C. in a specific humidity of 60%. After swabbing the egg shell with 70% alcohol, a small window was cut through the egg shell close to the inner shell surface where the prominent blood vessels are located using a hobby grinding wheel (Dremel Emerson Electric Co., Racine, Wis.). A filter disc saturated with bFGF (5 ng/ml) was placed on the CAM. Sterculic acid dissolved in dimethyl sulfoxide (DMSO) at various concentrations was added to the disc daily over 3-day period of incubation. The controls received the same amount of DMSO. After 72 h the disc and surrounding CAM were excised, inverted and examined under a high power dissecting microscope. The result was reported as reduction in angiogenic stimulation (vessels counted) compared to untreated controls.

[5] = test system: D407 cells; test: 7-ketocholesterol-mediated cytotoxicity, 24-well CCK-8 viability; conditions: 11 μM 7KCh, 24 hr, CCK-8
[6] = test system: Human retinal pigment epithelial (RPE) cells (ARPE-19); test: Microarray-based gene expression analysis of sterculic acid treated RPE cells; assay type: cell-based; conditions: 10 μM sterculic acid, 72 h
Procedure: Human retinal pigment epithelial (RPE) cells (ARPE-19) obtained from ATCC (Manassas, Va.) were grown in Dulbecco's Modified Eagle's Medium (DMEM) containing nutrient mixture F12 (Cellgro, Va.) supplemented with 5% fetal bovine serum, penicillin (100 U/ml) and streptomycin (100 μg/ml). Cells were seeded at a density of 2×10^5 cells/ml in complete medium and allowed to grow overnight. The culture medium was replaced next day with fresh medium before treating with 10 μM of sterculic acid dissolved in DMSO. The controls received the same amount of DMSO. After 72 h, total RNA, 100 ng, was amplified according to Affymetrix's small sample protocol, and 20 μg of cRNA was then hybridized on each NEI GeneChip microarray. After hybridization, GeneChip array was washed, stained with streptavidin-PE (Molecular Probes), amplified with biotinylated anti-streptavidin antibody and scanned with an argon ion Confocal Laser at 570 nm (Affymetrix). Affymetrix GeneChip Operating software was used for absolute expression and to normalize the gene expression levels between any two samples. Data were then incorporated into GeneSpring software 7.2 ([…]) for chip normalization, filtering and cluster analysis.

[7] = test system: Non-Small Cell Lung Cancer, NCI-H226; test: NCI in vitro anti-cancer cell line screen (SRB); conditions: Homo sapiens, NCI-H226, 48 h
Procedure: as §1, §2

[8] = test system: HUVEC; test: Cell migration (chemotaxis) assay, Boyden chamber, VEGF as chemoattractant; assay type: cell-based
Procedure: Cell migration was assessed using the 48-well Boyden chamber and 8 μm pore size collagen-coated (10 μg/ml rat tail collagen; Collaborative Laboratories) polycarbonate filters (Osmonics, Inc). The bottom chamber wells received 29 μl of DMEM medium alone (baseline) or medium containing chemoattractant (VEGF). The top chambers received 45 μl of HUVEC cell suspension (1×10^6 cells/ml) prepared in DMEM+1% BSA with or without sterculic acid. After 5 h incubation at 37° C., the membrane was rinsed in PBS, fixed and stained Diff-Quick solutions. The filter was placed on a glass slide with the migrated cells facing down and cell on top were removed using Kimwipe. The testing was performed in 4 replicates and five fields were counted from each well. The data was plotted as mean migrated cells±SD. IC50 was calculated from the plotted data.

CCCCCCCCC1=C(CCCCCCCC(=O)O)C1 [sterculic acid, 8-(2-octacyclopropen-1-yl)octanoic acid]
GI50 [1]: 10 µM
cell viability at 0.5 μM ([2]; 0.5 μM + 12 μM 7KCh, 24 hr): significantly increased cell viability
morphological effects on the cells (images) ([2]; 1 μM + 12 μM 7KCh, 24 hr, FIG. 12C): effectively protect
CONC. (μM): lowest concentration required to maintain full cell viability against 7KCh ([2]; 12 μM 7KCh for 24 hr, tested 0.1, 0.5, 1, 5 and 10 μM): 1 µM
protective effect against 7KCh-mediated cell death ([2]; 12 μM 7KCh, 24 hr, 0.1-10 μM fatty acid): by far the most effective compound
GI50 [3]: 1 µM
decrease in blood vessels induced by bFGF ([4]; 1 μg/ml sterculic acid in DMSO daily): Significant decrease
decrease in blood vessels induced by bFGF ([4]; 10 μg/ml sterculic acid in DMSO daily): more than 3 fold
value observed in the CAM assay ([4]; compared with the HUVEC IC50): 10 µM
co-treatment concentration that completely offsets the 7KCh cytotoxic effect (viability at level of control) [5]: 5 µM
Fold Change, ALDH3A1, down-regulated [6]: 7 fold
Fold Change, ALDH7A1, up-regulated [6]: 15 fold
Fold Change, ATF4, down-regulated [6]: 7 fold
Fold Change, BMP7, up-regulated [6]: 6 fold
Fold Change, CRABP1, down-regulated [6]: 8 fold
Fold Change, CTSC, up-regulated [6]: 9 fold
Fold Change, FNTA, up-regulated [6]: 4 fold
Fold Change, GADD45B, down-regulated [6]: 7 fold
Fold Change, GOT2, up-regulated [6]: 5 fold
Fold Change, HSPCA, up-regulated [6]: 11 fold
Fold Change, HYOU1, down-regulated [6]: 10 fold
Fold Change, IGFBP3, down-regulated [6]: 3 fold
Fold Change, MMP2, down-regulated [6]: 7 fold
Fold Change, MT1H, down-regulated [6]: 8 fold
Fold Change, PALLD, up-regulated [6]: 5 fold
Fold Change, SCEL, up-regulated [6]: 5 fold
Fold Change, SOD1, up-regulated [6]: 5 fold
Fold Change, SUOX, up-regulated [6]: 3 fold
Fold Change, VBP1, up-regulated [6]: 5 fold
GI50 [7]: 10 µM
cell toxicity at migration-inhibiting concentration [8]: without showing significant cell toxicity
concentration that significantly inhibited VEGF-induced endothelial cell migration ([8]; 5 h): Less than 100 μM
